Experimental data taken from PubChem BioAssay (NCI).
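Assay format: 96-well plates, 48-hour exposure. Abbreviation: GI50, concentration required for 50% inhibition of growth. TGI marks complete inhibition of growth.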

Columns and labels:
Assay in all cases: NCI tumour cell line growth inhibition, 48 h
786-0 renal = test system: 786-0 renal
A498 renal = test system: A498 renal
A549 NSCLC = test system: A549 NSCLC
ACHN renal = test system: ACHN renal
BT-549 breast = test system: BT-549 breast
CAKI-1 renal = test system: CAKI-1 renal
CCRF-CEM leukemia = test system: CCRF-CEM leukemia
COLO 205 colon = test system: COLO 205 colon
DU-145 prostate = test system: DU-145 prostate
EKVX NSCLC = test system: EKVX NSCLC
HCC-2998 colon = test system: HCC-2998 colon
HCT-116 colon = test system: HCT-116 colon
HCT-15 colon = test system: HCT-15 colon
HL-60(TB) leukemia = test system: HL-60(TB) leukemia
HOP-62 NSCLC = test system: HOP-62 NSCLC
HOP-92 NSCLC = test system: HOP-92 NSCLC
HS 578T breast = test system: HS 578T breast
HT29 colon = test system: HT29 colon
IGROV1 ovarian = test system: IGROV1 ovarian
K-562 leukemia = test system: K-562 leukemia
KM12 colon = test system: KM12 colon
LOX IMVI melanoma = test system: LOX IMVI melanoma
M14 melanoma = test system: M14 melanoma
MALME-3M melanoma = test system: MALME-3M melanoma
MCF7 breast = test system: MCF7 breast
MDA-MB-231 breast = test system: MDA-MB-231 breast
MDA-MB-435 = test system: MDA-MB-435
MOLT-4 leukemia = test system: MOLT-4 leukemia
NCI-H226 lung = test system: NCI-H226 lung
NCI-H23 lung = test system: NCI-H23 lung
NCI-H460 lung = test system: NCI-H460 lung
NCI-H522 lung = test system: NCI-H522 lung
NCI/ADR-RES ovarian = test system: NCI/ADR-RES ovarian
OVCAR-4 ovarian = test system: OVCAR-4 ovarian
OVCAR-5 ovarian = test system: OVCAR-5 ovarian
OVCAR-8 ovarian = test system: OVCAR-8 ovarian
PC-3 prostate = test system: PC-3 prostate
RPMI-8226 leukemia = test system: RPMI-8226 leukemia
RXF 393 renal = test system: RXF 393 renal
SF-268 CNS = test system: SF-268 CNS
SF-295 CNS = test system: SF-295 CNS
SF-539 CNS = test system: SF-539 CNS
SK-MEL-28 melanoma = test system: SK-MEL-28 melanoma
SK-MEL-5 melanoma = test system: SK-MEL-5 melanoma
SK-OV-3 ovarian = test system: SK-OV-3 ovarian
SN12C renal = test system: SN12C renal
SNB-19 CNS = test system: SNB-19 CNS
SNB-75 CNS = test system: SNB-75 CNS
SR leukemia = test system: SR leukemia
SW-620 colon = test system: SW-620 colon
T-47D breast = test system: T-47D breast
TK-10 renal = test system: TK-10 renal
U251 CNS = test system: U251 CNS
UACC-257 melanoma = test system: UACC-257 melanoma
UACC-62 melanoma = test system: UACC-62 melanoma
UO-31 renal = test system: UO-31 renal

CCN(CC)CCN1C(=O)c2c(c3c4cc(Br)ccc4[nH]c3c3ccc4ccccc4c23)C1=O
GI50 (786-0 renal): 1710 nM
TGI (786-0 renal): 3.11 µM
GI50 (A498 renal): 1640 nM
TGI (A498 renal): 3.29 µM
GI50 (A549 NSCLC): 1430 nM
TGI (A549 NSCLC): 2790 nM
GI50 (ACHN renal): 1140 nM
TGI (ACHN renal): 2360 nM
GI50 (BT-549 breast): 2220 nM
TGI (BT-549 breast): 4.07 µM
GI50 (CAKI-1 renal): 1250 nM
TGI (CAKI-1 renal): 2630 nM
GI50 (CCRF-CEM leukemia): 186 nM
TGI (CCRF-CEM leukemia): 1750 nM
GI50 (COLO 205 colon): 1430 nM
TGI (COLO 205 colon): 3.13 µM
GI50 (DU-145 prostate): 1220 nM
TGI (DU-145 prostate): 2560 nM
GI50 (EKVX NSCLC): 1380 nM
TGI (EKVX NSCLC): 2920 nM
GI50 (HCC-2998 colon): 1660 nM
TGI (HCC-2998 colon): 3.43 µM
GI50 (HCT-116 colon): 1250 nM
TGI (HCT-116 colon): 2500 nM
GI50 (HCT-15 colon): 1400 nM
TGI (HCT-15 colon): 3.08 µM
GI50 (HL-60(TB) leukemia): 1580 nM
TGI (HL-60(TB) leukemia): 3.98 µM
GI50 (HOP-62 NSCLC): 922 nM
TGI (HOP-62 NSCLC): 2250 nM
GI50 (HOP-92 NSCLC): 1320 nM
TGI (HOP-92 NSCLC): 2710 nM
GI50 (HS 578T breast): 1940 nM
TGI (HS 578T breast): 5.02 µM
GI50 (HT29 colon): 1350 nM
TGI (HT29 colon): 2800 nM
GI50 (IGROV1 ovarian): 1270 nM
TGI (IGROV1 ovarian): 2820 nM
GI50 (K-562 leukemia): 273 nM
TGI (K-562 leukemia): 905 nM
GI50 (KM12 colon): 1710 nM
TGI (KM12 colon): 3.5 µM
GI50 (LOX IMVI melanoma): 1250 nM
TGI (LOX IMVI melanoma): 3.04 µM
GI50 (M14 melanoma): 1570 nM
TGI (M14 melanoma): 2960 nM
GI50 (MALME-3M melanoma): 1560 nM
TGI (MALME-3M melanoma): 3.06 µM
GI50 (MCF7 breast): 43.9 nM
TGI (MCF7 breast): 1640 nM
GI50 (MDA-MB-231 breast): 1410 nM
TGI (MDA-MB-231 breast): 3000 nM
GI50 (MDA-MB-435): 1630 nM
TGI (MDA-MB-435): 3.08 µM
GI50 (MOLT-4 leukemia): 215 nM
TGI (MOLT-4 leukemia): 1920 nM
GI50 (NCI-H226 lung): 5.64 µM
TGI (NCI-H226 lung): 33.7 µM
GI50 (NCI-H23 lung): 1500 nM
TGI (NCI-H23 lung): 3.32 µM
GI50 (NCI-H460 lung): 476 nM
TGI (NCI-H460 lung): 1850 nM
GI50 (NCI-H522 lung): 1290 nM
TGI (NCI-H522 lung): 2670 nM
GI50 (NCI/ADR-RES ovarian): 1430 nM
TGI (NCI/ADR-RES ovarian): 4.19 µM
GI50 (OVCAR-4 ovarian): 1680 nM
TGI (OVCAR-4 ovarian): 3.22 µM
GI50 (OVCAR-5 ovarian): 1760 nM
TGI (OVCAR-5 ovarian): 3.23 µM
GI50 (OVCAR-8 ovarian): 1270 nM
TGI (OVCAR-8 ovarian): 2660 nM
GI50 (PC-3 prostate): 1310 nM
TGI (PC-3 prostate): 2650 nM
GI50 (RPMI-8226 leukemia): 1210 nM
TGI (RPMI-8226 leukemia): 3.23 µM
GI50 (RXF 393 renal): 1580 nM
TGI (RXF 393 renal): 3 µM
GI50 (SF-268 CNS): 1520 nM
TGI (SF-268 CNS): 3.53 µM
GI50 (SF-295 CNS): 1610 nM
TGI (SF-295 CNS): 3.09 µM
GI50 (SF-539 CNS): 1560 nM
TGI (SF-539 CNS): 3000 nM
GI50 (SK-MEL-28 melanoma): 1730 nM
TGI (SK-MEL-28 melanoma): 3.19 µM
GI50 (SK-MEL-5 melanoma): 1750 nM
TGI (SK-MEL-5 melanoma): 3.18 µM
GI50 (SK-OV-3 ovarian): 1500 nM
TGI (SK-OV-3 ovarian): 2900 nM
GI50 (SN12C renal): 1580 nM
TGI (SN12C renal): 3.14 µM
GI50 (SNB-19 CNS): 1430 nM
TGI (SNB-19 CNS): 2840 nM
GI50 (SNB-75 CNS): 1450 nM
TGI (SNB-75 CNS): 2840 nM
GI50 (SR leukemia): 102 nM
TGI (SR leukemia): 520 nM
GI50 (SW-620 colon): 553 nM
TGI (SW-620 colon): 2160 nM
GI50 (T-47D breast): 700 nM
TGI (T-47D breast): 2560 nM
GI50 (TK-10 renal): 2110 nM
TGI (TK-10 renal): 3.56 µM
GI50 (U251 CNS): 1020 nM
TGI (U251 CNS): 2210 nM
GI50 (UACC-257 melanoma): 1640 nM
TGI (UACC-257 melanoma): 3.01 µM
GI50 (UACC-62 melanoma): 1640 nM
TGI (UACC-62 melanoma): 3.5 µM
GI50 (UO-31 renal): 1320 nM
TGI (UO-31 renal): 2620 nM
